Results taken from patent US10457947B2, “Targeting of human glucocorticoid receptor beta in cancer” (The University of Toledo, priority 2016, dated 2019).

Columns and labels:
[1] = system: T24 bladder cancer cells; assay: Scratch (wounding) migration assay in T24 cells; format: cell-based, human
Description: Cells were seeded on a 6-well plate and grown for 24 hours until a monolayer of 90% confluent cells was obtained. A scratch wound in the cell monolayer was introduced using a sterile pipette tip. Images were taken at the time of wounding, and every 5 hours thereafter. Migration was measured as the fold change of the width of the wound remaining. To determine miRNA and mRNA expression during the scratch (wounding assay), total RNA was collected using the miRNeasy® Mini Kit (Qiagen) (described above) at 0 and 3 hours after the migration.

[2] = system: human GRβ mRNA; assay: GRβ mRNA expression by Real-Time PCR in T24 cells; format: cell-based
Description: The human uroepithelial carcinoma cell lines UMUC-3 and T24 (ATCC) were routinely cultured and maintained in Minimum Essential Medium (MEM) containing 10% fetal bovine serum (FBS) with 1% antibiotic-antimycotic. Cells were maintained at 37° C. and 5% CO2. Media was changed to MEM containing 10% Dialyzed-FBS with 1% antibiotic antimycotic 24 hours before hormone treatments.
A peptide nucleic acid (PNA) (Sweet-P) conjugated to a cell penetrating peptide (CPP) targeting the miR144 binding site in the 3′UTR of the human GRβ was designed using the PANAGENE® website (www.panagene.com). The Sweet-P targeting sequence was: (TGCCATACACAGTAT) [SEQ ID NO:1]. The Sweet-P sequence targeted the miR144 binding site in the 3′ UTR of human GRβ. (FIG. 7.) All PNAs were attached to an O-linker and a modified tat protein (VQRKRQKLMP) [SEQ ID NO:2] for delivery into the cell. Treatment with Sweet-P was performed for 48 hrs before the cells were analyzed.

[3] = system: E006AA cell lines; assay: Migration of E006AA-Par and E006AA-hT prostate cancer cells; format: cell-based, human
Excerpt: FIG. 15: Lentiviral shRNA suppression of human GRβ in E006AA-Par and E006AA-hT prostate cancer cells suppresses migration. *, P<0.05 and **, P<0.01 (scramble vs GRβ KD). N=12.

[4] = system: GRβ; assay: GRβ expression in E006AA-Par prostate cancer cells; format: cell-based, human
Excerpt: (§1) FIG. 10: Sweet-P blocks GRβ expression in lung and prostate cancer cells.

[5] = system: GRβ; assay: GRβ expression in A549 lung cancer cells; format: cell-based, human
Excerpt: as §1

[6] = system: PTEN; assay: Immunostaining of PTEN in T24 cells; format: cell-based, human; details: 10 nM Sweet-P, 48 hours
[7] = system: 3′UTR of human GRβ; assay: 3′UTR GRβ-Luc luciferase reporter assay in T24 cells; format: cell-based; details: Sweet-P at 0.1 nM, 1.0 nM, and 10 nM, 48 hours, versus 0 nM
Description: For transient transfection, cells were plated on a 6-well or 12-well dish in MEM containing 10% FBS. Cells were washed with OPTI-MEM and transfected using GeneFect® (Alkali Scientific, Inc.), according to the manufacturer's […] protocol. OPTI-MEM was removed after 12 h and MEM containing 10% FBS was added.
The expression vector pMirTarget containing the 3′UTR of hGRβ (hGRβ 3′UTR-luc) was purchased from Origene. The binding sites were mutated using the QuikChange Lightning Multi Site-Directed Mutagenesis Kits® (Agilent Technologies). Successful mutations were confirmed through sequencing by Operon MWG. Cells were seeded onto a 12-well plate and grown overnight. Transient transfection was performed as described above. To determine the effect of Sweet-P on the T24 bladder cancer cells, the cells were treated 24 h after transfection for 48 hours post transfection, 3′UTR GRβ-Luc WT or mutant expression was measured by luciferase, and pRL-CMV Renilla reporter for normalization to transfection efficiency, using the Promega dual luciferase assay system (Promega, Madison, Wis.).
A peptide nucleic acid (PNA) (Sweet-P) conjugated to a cell penetrating peptide (CPP) targeting the miR144 binding site in the 3′UTR of the human GRβ was designed using the PANAGENE® website (www.panagene.com). […] Treatment with Sweet-P was performed for 48 hrs before the cells were analyzed.

[8] = target: T1, GRα (Homo sapiens, UniProt P04150); assay: GRα controlled gene expression by Real-Time PCR in T24 cells; format: cell-based; details: Sweet-P 48 hours then 2 hours of dexamethasone
T1 construct: endogenous in cells; host or cells: T24 human uroepithelial carcinoma cells (ATCC)
T1 sequence (P04150 1-777): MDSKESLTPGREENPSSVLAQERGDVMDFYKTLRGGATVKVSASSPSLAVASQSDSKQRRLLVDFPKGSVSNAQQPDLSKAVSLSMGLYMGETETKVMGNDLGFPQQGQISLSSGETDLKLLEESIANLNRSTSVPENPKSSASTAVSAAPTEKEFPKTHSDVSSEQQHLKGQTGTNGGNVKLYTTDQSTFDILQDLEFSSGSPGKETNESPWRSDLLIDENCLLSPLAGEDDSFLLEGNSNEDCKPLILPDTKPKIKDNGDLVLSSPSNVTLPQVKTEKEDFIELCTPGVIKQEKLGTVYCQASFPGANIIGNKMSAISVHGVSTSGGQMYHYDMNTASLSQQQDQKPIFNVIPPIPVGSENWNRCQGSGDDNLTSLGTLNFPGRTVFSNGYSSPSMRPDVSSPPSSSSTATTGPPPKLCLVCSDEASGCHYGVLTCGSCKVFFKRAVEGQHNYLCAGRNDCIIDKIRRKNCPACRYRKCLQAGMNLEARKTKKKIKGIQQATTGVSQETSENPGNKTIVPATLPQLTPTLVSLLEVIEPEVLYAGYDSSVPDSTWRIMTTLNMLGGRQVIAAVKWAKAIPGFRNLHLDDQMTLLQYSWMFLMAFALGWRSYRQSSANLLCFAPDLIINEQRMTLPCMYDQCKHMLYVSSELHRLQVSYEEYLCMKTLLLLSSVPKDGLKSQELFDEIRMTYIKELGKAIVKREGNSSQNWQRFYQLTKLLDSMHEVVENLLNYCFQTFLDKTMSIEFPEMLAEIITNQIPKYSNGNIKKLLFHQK
Description: GRα controlled gene response was measured by Real-Time PCR for FKBP51, GILZ, p21, VEGFA, GRα, and GRβ. Cells were seeded in media containing 10% dialyzed FBS for 24 hours before treatment.
Total RNA was extracted from cell cultures using the 5-Prime PerfectPure® RNA Cell Kit (Fisher Scientific Company, LLC). Total RNA was read on a NanoDrop 2000® spectrophotometer (ThermoFisher Scientific, Wilmington, Del.) and cDNA was synthesized using High Capacity cDNA Reverse Transcription Kit (Applied Biosystems). PCR amplification of the cDNA was performed by quantitative real-time PCR using TrueAmp SYBR Green qPCR SuperMix® (Smart Bioscience). The thermocycling protocol consisted of 10 min at 95° C., 40 cycles of 15 sec at 95° C., 30 sec at 60° C., and 20 sec at 72° C., and finished with a melting curve ranging from 60-95° C. to allow distinction of specific products. Normalization was performed in separate reactions with primers to GAPDH.

[9] = system: GRα; assay: Immunofluorescence of GRα in T24 cells; format: cell-based, human
Description: (§2) FIGS. 3A-3D: Dexamethasone and insulin treatment in T24 cells (FIGS. 3A-3B) and UMUC-3 cells (FIGS. 3C-3D). GRβ and GRα expression and location were measured using immunofluorescence with control (vehicle treatment), dexamethasone, or insulin treatments. Cells were seeded onto coverslips in media containing 10% dialyzed FBS for 24 hours before treating. Cells were treated with 100 nM insulin, 100 nM dexamethasone, or vehicle for 30 minutes. Secondary antibodies (labeling of human GRα or GRβ) are shown in green, DAPI (nuclei labeling) are shown in blue, a merge of the green and blue images are shown in panel 3 to represent localization, and a bright field image is shown in gray (scale bar=25 μm).
Cells were seeded onto a glass coverslip placed in a 6-well plate and grown were grown to desired confluence. Cells were then fixed with 3% paraformaldehyde, permeated with PBS containing 0.25% Triton X (PBST), and blocked with PBST containing 1% BSA. Slides were then stained with either anti-hGRα Rabbit IgG or anti-hGRβ Rabbit IgG antibodies obtained from Antibody Research. Secondary staining was performed using anti-Rb IgG 488 antibody from Life Technologies. Coverslips were planted onto slides with Fluoromount-G®, and DAPI was added to stain nuclei. Slides were magnified using a Leica Microscope with a 63X oil Immersion lens. […]

[10] = system: mTOR; assay: Immunostaining of mTOR in T24 cells; format: cell-based, human; details: 10 nM Sweet-P, 48 hours
[11] = system: GRβ; assay: Immunofluorescence of GRβ in T24 cells; format: cell-based, human
[12] = system: GRα; assay: Immunofluorescence of GRα in UMUC-3 cells; format: cell-based, human; details: 100 nM, 30 minutes, versus vehicle
Description: as §2, with “Cells were seeded onto coverslips in media containing 10% dialyzed FBS for 24 hours before treating.” left out
(§3) Cells were seeded onto a glass coverslip placed in a 6-well plate and grown were grown to desired confluence. […] Slides were then stained with either anti-hGRα Rabbit IgG or anti-hGRβ Rabbit IgG antibodies obtained from Antibody Research. […] Coverslips were planted onto slides with Fluoromount-G®, and DAPI was added to stain nuclei. Slides were magnified using a Leica Microscope with a 63X oil Immersion lens. Images were acquired in the XYZ plane in 1 μm steps with a 63X oil objective (NA 1.40). Images were acquired with the LAS AF® software in sequential scan mode. AlexaFluor488® was excited at 488 nm with collection at 500-558 nm and DAPI was excited with the multi-photon (MP) laser tuned to 790 nm with collection at 420-500 nm. Images are 2D projections of the of image stack as labeled. […]

[13] = system: GRβ; assay: Immunofluorescence of GRβ in UMUC-3 cells; format: cell-based, human; details: 100 nM, 30 minutes
Description: as §2, with “Cells were seeded onto coverslips in media containing 10% dialyzed FBS for 24 hours before treating.” left out
as §3

[14] = system: UMUC-3 cells; assay: miRNA expression by Real-Time PCR in UMUC-3 cells; format: cell-based, human; details: 100 nM Insulin, 2 hours
Description: FIGS. 8A-8B: The effect of dexamethasone treatment on cell migration and miRNA expression in UMUC-3 and T24 bladder cancer cells. Migration was measured in the UMUC-3 and T24 cells that were treated with either vehicle or 100 nM dexamethasone for 30 minutes prior to wounding, and is presented as the fold-change in the wound width remaining (FIG. 8A). Images of the migration assay at […] post wounding are shown, with wound edges marked at T0 (black solid line) and T15 (white dashed line). ANOVA p<0.001; Bonferoni comparisons ***, p<0.0001 (versus Vehicle) (±S.E.; n=6). Total RNA was extracted from the UMUC3 and T24 cells after treating with either vehicle, 100 nM dexamethasone, or 100 nM Insulin in dialyzed media for 2 hours before harvesting, and miRNA expression was measured by Real-Time PCR (FIG. 8B). *, p<0.05; (Dex versus Veh); $, p<0.05; (Ins versus Veh); ##, p<0.01; ##, p<0.001; (T24 versus UMUC3) (±S.E.; n=6).
Total RNA was extracted from cell cultures using the miRNeasy® Mini Kit (Qiagen). Total RNA was read on a NanoDrop 2000® spectrophotometer (Thermo Fisher Scientific, Wilmington, Del.) and cDNA was synthesized using the miScript RT Kit (Qiagen). […] The miScript Primer Assay® primers were purchased from Qiagen. Normalization was performed in separate reactions with primers to Hs_RNU6-2_11, At_U19_1, and Hs_SNORD61_11.

[15] = system: T24 cells; assay: miRNA expression by Real-Time PCR in T24 cells; format: cell-based, human; details: 100 nM Insulin, 2 hours
Description: FIGS. 8A-8B: […] ANOVA p<0.001; Bonferoni comparisons ***, […]=6). […] Total RNA was extracted from cell cultures using the miRNeasy® Mini Kit (Qiagen). […] The miScript Primer Assay® primers were purchased from Qiagen. Normalization was performed in separate reactions with primers to Hs_RNU6-2_11, At_U19_1, and Hs_SNORD61_11. The cloning vector pCMV-MIR containing the miR144 sequence was purchased from Origene. Cells were seeded on a 6-well plate, and transient transfection of the plasmid was completed as described above. After 48 hours-post transfection, RNA was harvested.

[16] = 100 nM, 30 minutes, versus vehicle

GRβ shRNA: pGFP-C-shLenti lentiviral GRβ shRNA (CCAGAAAGCACATCTCACACATTAATCTG) [reference compound]
migration ([1]; T24 GRβ shRNA cells versus T24 Scramble): significant (ANOVA: p<0.001) decrease | knockdown of GRβ expression (reduction) ([2]; stable shRNA lentivirus, versus T24 Scramble): 64% | migration ([3]; E006AA prostate cancer cells, lentiviral shRNA versus scramble): significant reduction

Sweet-P: PNA TGCCATACACAGTAT [SEQ ID NO:1] attached to an O-linker and modified tat protein VQRKRQKLMP, targeting the miR144 binding site in 3′UTR of human GRβ (all peptide nucleic acid (PNA); O-linker and modified tat peptide attached, position not given here)
GRβ expression [4]: blocks | GRβ expression [5]: blocks | migration (wound width remaining) ([1]; T24 cells, 10 nM Sweet-P for 48 hours prior to wounding): significantly (ANOVA: p<0.001) inhibited | PTEN protein expression [6]: significantly (p<0.0001) increased | GRβ mRNA expression ([2]; Sweet-P at 1.0 nM, 10 nM, 50 nM, and 100 nM, 48 hours, versus 0 nM): significantly (p<0.05) decreased | luciferase expression of the pMirTarget 3′ UTR hGRβ construct [7]: significantly (p<0.001) reduced | FKBP51 expression (GRα activity) [8]: enhancing expression | tumor necrosis factor α (TNFα) expression (GRα activity) [8]: decreasing | migration ([3]; E006AA-Par and E006AA-hT cells, Sweet-P): significantly decreased | GRα protein expression ([9]; 10 nM Sweet-P, 48 hours): no effect | mTOR protein expression [10]: unaffected | GRβ protein expression ([11]; 10 nM Sweet-P, 48 hours): reduced

insulin: insulin, hormone treatment at 100 nM
GRα expression (immunofluorescence) [12]: no effect | GRβ localization [13]: higher in the nucleus | GRβ expression (immunofluorescence) ([13]; versus vehicle): significantly increased | miR-181a expression [14]: suppress | expression of miR-33a, miR-144, miR-181a, miR-181b, miR-181c, or miR-181d [15]: did not significantly change | GRα expression (immunofluorescence) [9, 16]: significantly decreased (p<0.001) | GRβ localization ([11]; 100 nM, 30 minutes): no change | GRβ expression (immunofluorescence) [11, 16]: significantly increased
